Molecules are shown by their SMILES.

From US20100056516A1 (priority 2006, published 2010) come the findings set out here.

The target in test [1] is HIV integrase (Human immunodeficiency virus type 1 group M subtype B, UniProt P04585). Nature of the test: integrase strand transfer assay (STA). Particulars: integrase strand transfer; read-out: IC50 in the STA assay. The format is biochemical.
Test [2] deals with HXB2 virus. Nature of the test: microbe, parasite or virus in culture. The format is cell-based, HIV. Particulars: Human immunodeficiency virus 1, HXB2, HeLaP4-2, read-out: antiviral IC50 (SCIA-B). The gist of the method:
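Single-cycle infectivity assay in HeLa P4-2 cells measuring inhibition of acute HIV infection, using HXB2 virus.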

The term IC50 denotes the midpoint of a concentration-inhibition curve. As for `CC(=O)c1cnc2c(c1)c(O)c(-c1ccccc1)c(=O)n2O` [Example 71, 6-acetyl-1,4-dihydroxy-3-phenyl-1,8-naphthyridin-2(1H)-one], the figures for the 50% inhibitory concentration (IC50) in test [1] and in test [2] were below 50 µM and below 100 µM, respectively.
Take `O=c1cc(O)c2c(-c3cccc(O)c3)ccnc2n1O` [Example 226, 1,4-dihydroxy-5-(3-hydroxyphenyl)-1,8-naphthyridin-2(1H)-one]: the IC50 in test [1] was below 50 µM; in test [2], below 100 µM.
For `CCOC(=O)c1c(O)c2cc(C(C)=O)cnc2n(O)c1=O` [Example 70, ethyl 6-acetyl-1,4-dihydroxy-2-oxo-1,2-dihydro-1,8-naphthyridine-3-carboxylate] the same measures were below 50 µM and below 100 µM.
Take `N#Cc1cccc(-c2cccc(-c3cc(=O)n(O)c4ncccc34)c2)c1` [Example 202, 3′-(1-hydroxy-2-oxo-1,2-dihydro-1,8-naphthyridin-4-yl)biphenyl-3-carbonitrile]: the results for the IC50 in test [1] and in test [2] were below 50 µM and below 100 µM, respectively.
As to `O=c1cc(NCc2ccccc2F)c2cccnc2n1O` [Example 155, 4-[(2-fluorobenzyl)amino]-1-hydroxy-1,8-naphthyridin-2(1H-one)], the figures for the IC50 in test [1] and in test [2] were below 50 µM and below 100 µM, respectively.
For `Nc1cccc(-c2cnc3c(c2)c(O)cc(=O)n3O)c1` [Example 68, 6-(3-Aminophenyl)-1,4-dihydroxy-1,8-naphthyridin-2(1H)-one] the same measures were below 50 µM and below 100 µM.
On to `CCOC(=O)c1c(CCc2ccccc2)c2cccnc2n(O)c1=O` [Example 240, ethyl 1-hydroxy-2-oxo-4-(2-phenylethyl)-1,2-dihydro-1,8-naphthyridine-3-carboxylate], for which the IC50 in test [1] was below 50 µM; in test [2], below 100 µM.
For `O=c1cc(N2CCc3ccccc3C2)c2cccnc2n1O` [Example 119, 4-(3,4-dihydroisoquinolin-2(1H)-yl)-1-hydroxy-1,8-naphthyridin-2(1H)-one] the same measures were below 50 µM and below 100 µM.
For the compound `O=c1cc(-c2ccc3ccccc3c2)c2cccnc2n1O` [Example 173, 1-hydroxy-4-(2-naphthyl)-1,8-naphthyridin-2(1H)-one], the figures for the concentration for half-maximal inhibition (IC50) in test [1] and in test [2] were below 50 µM and below 100 µM, respectively.
On to `O=C(CN1CCN(Cc2cccc(-c3cc(=O)n(O)c4ncccc34)c2)CC1)N1CCOCC1` [Example 211, 1-hydroxy-4-[3-({4-[2-(4-morpholinyl)-2-oxoethyl]-1-piperazinyl}methyl)phenyl]-1,8-naphthyridin-2(1H-one)], for which the IC50 in test [1] was below 50 µM; in test [2], below 100 µM.
Regarding `O=c1cc(Nc2ccccc2N2CCCCC2)c2cccnc2n1O` [Example 139, 1-hydroxy-4-{[2-(1-piperidinyl)pheny]amino}-1,8-naphthyridin-2(1H-one)], the half-maximal inhibitory concentration (IC50) in test [1] was below 50 µM; in test [2], below 100 µM.
Taken in the same sequence, the figures for `CC(=O)N1CCN(Cc2cccc(-c3cc(=O)n(O)c4ncccc34)c2)CC1` [Example 213, 4-{3-[(4-acetyl-1-piperazinyl)methyl]phenyl}-1-hydroxy-1,8-naphthyridin-2(1H-one)] were below 50 µM and below 100 µM.
Regarding `O=c1cc(N2CCc3ccc(-c4ccncc4)cc3C2)c2cccnc2n1O` [Example 253, 1-hydroxy-4-(7-pyridin-4-yl-3,4-dihydroisoquinolin-2(1H)-yl)-1,8-naphthyridin-2(1H)-one], the IC50 in test [1] is below 50 µM; in test [2], below 100 µM.
Taken in the same sequence, the figures for `O=c1c(-c2ccccc2)c(O)c2cc(-c3ccccc3-n3cccn3)cnc2n1O` [Example 53, 1,4-Dihydroxy-3-phenyl-6-[2-(1H-pyrazol-1-yl)phenyl]-1,8-naphthyridin-2(1H)-one] were below 50 µM and below 100 µM.
For `O=c1c(Br)c(O)c2cc(-c3ccncc3)cnc2n1O` [Example 72, 3-Bromo-1,4-dihydroxy-6-pyridin-4-yl-1,8-naphthyridin-2(1H)-one] the same measures were below 50 µM and below 100 µM.
Taken in the same sequence, the figures for `CCOC(=O)c1c(O)c2cc(-c3cccnc3)cnc2n(O)c1=O` [Example 58, Ethyl 1,4-dihydroxy-2-oxo-6-pyridin-3-yl-1,2-dihydro-1,8-naphthyridine-3-carboxylate] were below 50 µM and below 100 µM.
Regarding `CC(Nc1cc(=O)n(O)c2ncccc12)c1ccccc1` (centres unmarked) [Example 157, 1-hydroxy-4-[(1-phenylethyl)amino]-1,8-naphthyridin-2(1H-one)], the values for the IC50 in test [1] and in test [2] were below 50 µM and below 100 µM, respectively.
As for `NCc1cccc(CNc2cc(=O)n(O)c3ncccc23)c1` [Example 159, 4-{[3-(aminomethyl)benzyl]amino}-1-hydroxy-1,8-naphthyridin-2(1H-one)], the results for the IC50 in test [1] and in test [2] were below 50 µM and below 100 µM, respectively.
Taken in the same sequence, the figures for `O=C(NCc1ccccc1)c1cnc2c(c1)c(O)c(C(=O)NCc1ccccc1)c(=O)n2O` [Example 87, N,N′-Dibenzyl-1,4-dihydroxy-2-oxo-1,2-dihydro-1,8-naphthyridine-3,6-dicarboxamide] were below 50 µM and below 100 µM.
As to `O=c1cc(N2CCC(Cc3ccccc3)CC2)c2cccnc2n1O` [Example 133, 4-(4-benzylpiperidin-1-yl)-1-hydroxy-1,8-naphthyridin-2(1H)-one], the concentration for half-maximal inhibition (IC50) in test [1] was below 50 µM; in test [2], below 100 µM.
For `CCOC(=O)c1c(O)c2cc(Cc3ccccc3)cnc2n(O)c1=O` [Example 63, Ethyl 6-benzyl-1,4-dihydroxy-2-oxo-1,2-dihydro-1,8-naphthyridine-3-carboxylate] the same measures were below 50 µM and below 100 µM.
For `O=c1cc(NCc2ccccc2)c2cccnc2n1O` [Example 126, 4-(benzylamino)-1-hydroxy-1,8-naphthyridin-2(1H)-one] the same measures were below 50 µM and below 100 µM.
For `O=c1cc(N2CCCC(CN3CCOCC3)C2)c2cccnc2n1O` (centres unmarked) [Example 144, 1-hydroxy-4-[3-(4-morpholinylmethyl)-1-piperidinyl]-1,8-naphthyridin-2(1H-one)], the 50% inhibitory concentration (IC50) in test [1] was below 50 µM; in test [2], below 100 µM.
With `CCOC(=O)c1c(O)c2cc(C(=O)NCc3cccc(OC)c3)cnc2n(O)c1=O` [Example 78, Ethyl 1,4-dihydroxy-6-{[3-methoxybenzyl)amino] carbonyl}-2-oxo-1,2-dihydro-1,8-naphthyridine-3-carboxylate], the results for the half-maximal inhibitory concentration (IC50) in test [1] and in test [2] were below 50 µM and below 100 µM, respectively.
For `CS(=O)(=O)Nc1cccc(-c2cnc3c(c2)c(O)cc(=O)n3O)c1` [Example 69, N-[3-(5,8-Dihydroxy-7-oxo-7,8-dihydro-1,8-naphthyridin-3-yl)phenyl]methane-sulfonamide] the same measures were below 50 µM and below 100 µM.
Consider `C[C@@H](Nc1cc(=O)n(O)c2ncccc12)c1ccccc1` [Example 125, 1-hydroxy-4-{[(1R)-1-phenylethyl]amino}-1,8-naphthyridin-2(1H)-one], for which the half-maximal inhibitory concentration (IC50) was below 50 µM in test [1] and below 100 µM in test [2].
For `NCc1cccc(-c2ccc3c(c2)CN(c2cc(=O)n(O)c4ncccc24)CC3)c1` [Example 252, 4-[7-(3-aminomethylphenyl)-3,4-dihydroisoquinolin-2(1H)-yl]-1-hydroxy-1,8-naphthyridin-2(1H)-one] the same measures were below 50 µM and below 100 µM.
In the case of `O=c1c(-c2cccc(F)c2)c(O)c2cccnc2n1O` [Example 36, 3-(3-Fluorophenyl)-1,4-dihydroxy-1,8-naphthyridin-2(1H)-one], the half-maximal inhibitory concentration (IC50) in test [1] was below 50 µM; in test [2], below 100 µM.
For `CC(NC(=O)c1c(O)c2cccnc2n(O)c1=O)c1ccccc1` (centres unmarked) [Example 23, 1,4-Dihydroxy-2-oxo-N-(1-phenylethyl)-1,2-dihydro-1,8-naphthyridine-3-carboxamide] the same measures were below 50 µM and below 100 µM.
For `CCOC(=O)c1c(O)c2cc(-c3cccc(-c4ccccc4)c3)cnc2n(O)c1=O` [Example 64, Ethyl 6-biphenyl-3-yl-1,4-dihydroxy-2-oxo-1,2-dihydro-1,8-naphthyridine-3-carboxylate] the same measures were below 50 µM and below 100 µM.
Taken in the same sequence, the figures for `O=c1cc(-c2ccncc2)c2cccnc2n1O` [Example 203, 1-hydroxy-4-pyridin-4-yl-1,8-naphthyridin-2(1H)-one] were below 50 µM and below 100 µM.
As for `CCOC(=O)c1c(N)c2cccnc2n(O)c1=O` [Example 97, Ethyl 4-amino-1-hydroxy-2-oxo-1,2-dihydro-1,8-naphthyridine-3-carboxylate], the half-inhibitory concentration (IC50) in test [1] was below 50 µM; in test [2], below 100 µM.
Turning to `NCc1ccc(-c2cccc(-c3ccnc4c3c(O)cc(=O)n4O)c2)cc1` [Example 228, 5-[4′-(aminomethyl)biphenyl-3-yl]-1,4-dihydroxy-1,8-naphthyridin-2(1H)-one], the IC50 is below 50 µM in test [1] and below 100 µM in test [2].
For `O=c1cc(N2CCC(N3CCOCC3)CC2)c2cccnc2n1O` [Example 138, 1-hydroxy-4-[4-(4-morpholinyl)-1-piperidinyl]-1,8-naphthyridin-2(1H-one)] the same measures were below 50 µM and below 100 µM.
Taken in the same sequence, the figures for `O=c1cc(N2CCN(c3ccccc3)CC2)c2cccnc2n1O` [Example 131, 1-hydroxy-4-(4-phenylpiperazin-1-yl)-1,8-naphthyridin-2(1H)-one] were below 50 µM and below 100 µM.
Taken in the same sequence, the figures for `CCOC(=O)c1c(N)c2cc(-c3ccccc3)cnc2n(O)c1=O` [Example 98, Ethyl 4-amino-1-hydroxy-2-oxo-6-phenyl-1,2-dihydro-1,8-naphthyridine-3-carboxylate] were below 50 µM and below 100 µM.
`Nc1ccc(-c2cccc(Cc3cc(=O)n(O)c4ncccc34)c2)cc1` [Example 234, 4-[(4′-aminobiphenyl-3-yl)methyl]-1-hydroxy-1,8-naphthyridin-2(1H)-one]: the half-maximal inhibitory concentration (IC50) in test [1] is below 50 µM; in test [2], below 100 µM.
